Where two headings read alike, the source gives them in different places.
How the values were obtained:
Assay type in all cases: in vivo
Kochia (Kochia scoparia) [1] = assay: Test A preemergence; conditions: Bassia scoparia, pre-emergence, 240 h, preemergence; for pest or weed control at 125 g/ha: 125 g ai/ha, 0 to 100 scale where 0 is no effect and 100 is complete control; for pest or weed control at 500 g/ha: 500 g ai/ha
Outline: (§1)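 Ratings of 0 (no effect) to 100 (complete control) come from visual comparison with untreated controls roughly 10 d after treatment. Test chemicals, formulated in a non-phytotoxic solvent mixture with surfactant, were applied either as a preemergence directed soil spray on seeded soil or postemergence to one- to two-leaf plants 2 to 10 cm tall.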

[2] = tested on: barnyardgrass (Echinochloa crus-galli); assay: Test A preemergence; conditions: Echinochloa crus-galli, pre-emergence, 240 h, preemergence; for pest or weed control at 125 g/ha: 125 g ai/ha, 0 to 100 scale where 0 is no effect and 100 is complete control; for pest or weed control at 500 g/ha: 500 g ai/ha
Outline: as §1

[3] = tested on: giant foxtail (Setaria faberii); assay: Test A preemergence; conditions: Setaria faberi, pre-emergence, 240 h, preemergence; for pest or weed control at 125 g/ha: 125 g ai/ha, 0 to 100 scale where 0 is no effect and 100 is complete control; for pest or weed control at 500 g/ha: 500 g ai/ha
Outline: as §1

[4] = tested on: pigweed (Amaranthus retroflexus); assay: Test A preemergence; conditions: Amaranthus retroflexus, pre-emergence, 240 h, preemergence; for pest or weed control at 125 g/ha: 125 g ai/ha, 0 to 100 scale where 0 is no effect and 100 is complete control; for pest or weed control at 500 g/ha: 500 g ai/ha
[5] = tested on: ragweed (common ragweed, Ambrosia elatior); assay: Test A preemergence; conditions: Ambrosia artemisiifolia, pre-emergence, 240 h, preemergence; for pest or weed control at 125 g/ha: 125 g ai/ha, 0 to 100 scale where 0 is no effect and 100 is complete control; for pest or weed control at 500 g/ha: 500 g ai/ha
Outline: as §1

[6] = tested on: ryegrass, Italian (Italian ryegrass, Lolium multiflorum); assay: Test A preemergence; conditions: Lolium multiflorum, pre-emergence, 240 h, preemergence; for pest or weed control at 125 g/ha: 125 g ai/ha, 0 to 100 scale where 0 is no effect and 100 is complete control; for pest or weed control at 500 g/ha: 500 g ai/ha
Outline: as §1

[7] = tested on: Galium (catchweed bedstraw, Galium aparine); assay: Test A postemergence; conditions: Galium, post-emergence, 240 h, 125 g ai/ha, visual injury after approximately 10 d, read-out: Plant response rating, Galium
Outline: as §1

Kochia (Kochia scoparia) [8] = assay: Test A postemergence; conditions: Bassia scoparia, post-emergence, 240 h, 125 g ai/ha, visual injury after approximately 10 d, read-out: Plant response rating, Kochia
Outline: as §1

[9] = tested on: barnyardgrass (Echinochloa crus-galli); assay: Test A postemergence; conditions: Echinochloa crus-galli, post-emergence, 240 h, 125 g ai/ha, visual injury after approximately 10 d, read-out: Plant response rating, Barnyardgrass
Outline: as §1

[10] = tested on: blackgrass (Alopecurus myosuroides); assay: Test A postemergence; conditions: Alopecurus myosuroides, post-emergence, 240 h, 125 g ai/ha, visual injury after approximately 10 d, read-out: Plant response rating, Blackgrass
Outline: as §1

corn (Zea mays) = assay: Test A postemergence; conditions: Zea mays, post-emergence, 240 h, 125 g ai/ha, visual injury after approximately 10 d
Outline: as §1

[11] = tested on: giant foxtail (Setaria faberii); assay: Test A postemergence; conditions: Setaria faberi, post-emergence, 240 h, 125 g ai/ha, visual injury after approximately 10 d, read-out: Plant response rating, Foxtail, Giant
Outline: as §1

[12] = tested on: pigweed (Amaranthus retroflexus); assay: Test A postemergence; conditions: Amaranthus retroflexus, post-emergence, 240 h, 125 g ai/ha, visual injury after approximately 10 d, read-out: Plant response rating, Pigweed
Outline: as §1

[13] = tested on: ragweed (common ragweed, Ambrosia elatior); assay: Test A postemergence; conditions: Ambrosia artemisiifolia, post-emergence, 240 h, 125 g ai/ha, visual injury after approximately 10 d, read-out: Plant response rating, Ragweed
Outline: as §1

[14] = tested on: ryegrass, Italian (Italian ryegrass, Lolium multiflorum); assay: Test A postemergence; conditions: Lolium multiflorum, post-emergence, 240 h, 125 g ai/ha, visual injury after approximately 10 d, read-out: Plant response rating, Ryegrass, Italian
Outline: as §1

[15] = tested on: wheat (Triticum aestivum); assay: Test A postemergence; conditions: Triticum aestivum, post-emergence, 240 h, 125 g ai/ha, visual injury after approximately 10 d, read-out: Plant response rating, Wheat
Outline: as §1

[16] = Postemergence, 0 to 100 scale where 0 is no effect and 100 is complete control
[17] = postemergence, 0 to 100 scale (0 no effect, 100 complete control)

O=C(Nc1cccc(Cl)c1F)[C@H]1C(=O)N(C2CC2)CC[C@@H]1c1cccc(C(F)(F)F)c1 [Compound 926]
90%: pest or weed control at 500 g/ha ([2]; visual injury rating about 10 d after treatment, 0 to 100 scale (0 no effect, 100 complete control), read-out: Barnyardgrass plant response rating) | pest or weed control at 500 g/ha ([3]; visual injury rating about 10 d after treatment, 0 to 100 scale (0 no effect, 100 complete control), read-out: Foxtail, Giant plant response rating)
40%: pest or weed control at 125 g/ha [9, 16] | pest or weed control at 125 g/ha [11, 16]
80%: pest or weed control at 125 g/ha ([3]; read-out: Foxtail, Giant plant response rating)
30%: pest or weed control at 125 g/ha ([2]; read-out: Barnyardgrass plant response rating)
0%: pest or weed control at 125 g/ha (Kochia (Kochia scoparia) [1]; read-out: Kochia plant response rating) | pest or weed control at 500 g/ha (Kochia (Kochia scoparia) [1]; visual injury rating about 10 d after treatment, 0 to 100 scale (0 no effect, 100 complete control), read-out: Kochia plant response rating) | pest or weed control at 125 g/ha ([4]; read-out: Pigweed plant response rating) | pest or weed control at 500 g/ha ([4]; visual injury rating about 10 d after treatment, 0 to 100 scale (0 no effect, 100 complete control), read-out: Pigweed plant response rating) | pest or weed control at 125 g/ha ([5]; read-out: Ragweed plant response rating) | pest or weed control at 500 g/ha ([5]; visual injury rating about 10 d after treatment, 0 to 100 scale (0 no effect, 100 complete control), read-out: Ragweed plant response rating) | pest or weed control at 125 g/ha ([6]; read-out: Ryegrass, Italian plant response rating) | pest or weed control at 500 g/ha ([6]; visual injury rating about 10 d after treatment, 0 to 100 scale (0 no effect, 100 complete control), read-out: Ryegrass, Italian plant response rating) | pest or weed control at 125 g/ha [7, 16] | pest or weed control at 125 g/ha (Kochia (Kochia scoparia) [8]; [16]) | pest or weed control at 125 g/ha [10, 16] | Corn plant response rating (crop injury, 0 = no effect, 100 = complete kill) at 125 g/ha (corn (Zea mays); [16]) | pest or weed control at 125 g/ha [12, 16] | pest or weed control at 125 g/ha [13, 16] | pest or weed control at 125 g/ha [14, 16] | plant injury at 125 g/ha [15, 16]

C=CCN1C[C@H](c2ccc(OC)c(F)c2)[C@@H](C(=O)Nc2ccccc2C(F)(F)F)C1=O [Compound 723]
0%: pest or weed control at 125 g/ha (Kochia (Kochia scoparia) [1]; visual rating after approx. 10 d, read-out: Plant response rating, Kochia) | pest or weed control at 500 g/ha (Kochia (Kochia scoparia) [1]; 0 to 100 scale, 0 = no effect, 100 = complete control, read-out: Plant response rating, Kochia) | pest or weed control at 125 g/ha ([2]; visual rating after approx. 10 d, read-out: Plant response rating, Barnyardgrass) | pest or weed control at 500 g/ha ([2]; 0 to 100 scale, 0 = no effect, 100 = complete control, read-out: Plant response rating, Barnyardgrass) | pest or weed control at 125 g/ha ([3]; visual rating after approx. 10 d, read-out: Plant response rating, Foxtail, Giant) | pest or weed control at 125 g/ha ([4]; visual rating after approx. 10 d, read-out: Plant response rating, Pigweed) | pest or weed control at 500 g/ha ([4]; 0 to 100 scale, 0 = no effect, 100 = complete control, read-out: Plant response rating, Pigweed) | pest or weed control at 125 g/ha ([5]; visual rating after approx. 10 d, read-out: Plant response rating, Ragweed) | pest or weed control at 500 g/ha ([5]; 0 to 100 scale, 0 = no effect, 100 = complete control, read-out: Plant response rating, Ragweed) | pest or weed control at 125 g/ha ([6]; visual rating after approx. 10 d, read-out: Plant response rating, Ryegrass, Italian) | pest or weed control at 500 g/ha ([6]; 0 to 100 scale, 0 = no effect, 100 = complete control, read-out: Plant response rating, Ryegrass, Italian) | pest or weed control at 125 g/ha [7, 17] | pest or weed control at 125 g/ha (Kochia (Kochia scoparia) [8]; [17]) | pest or weed control at 125 g/ha [9, 17] | pest or weed control at 125 g/ha [10, 17] | Corn plant response rating (crop injury, 0 = no effect, 100 = complete kill) at 125 g/ha (corn (Zea mays); [17]) | pest or weed control at 125 g/ha [11, 17] | pest or weed control at 125 g/ha [12, 17] | pest or weed control at 125 g/ha [13, 17] | pest or weed control at 125 g/ha [14, 17] | plant injury at 125 g/ha [15, 17]
50%: pest or weed control at 500 g/ha ([3]; 0 to 100 scale, 0 = no effect, 100 = complete control, read-out: Plant response rating, Foxtail, Giant)
